≈ marks a conversion by molar mass, not a printed value. Each block holds one molecule with its values, some of them ahead of it.
Key:
Escherichia coli [1] = details: E. coli ATCC 25922, QC organism; cited from earlier work
Pseudomonas aeruginosa [2] = details: P. aeruginosa ATCC 27853, QC organism; cited from earlier work
Escherichia coli [3] = assay: Broth microdilution MIC (Example 12)
Klebsiella pneumoniae = assay: Broth microdilution MIC (Example 12)
Pseudomonas aeruginosa [4] = assay: Broth microdilution MIC (Example 12)
Acinetobacter baumannii = assay: Broth microdilution MIC (Example 12)
S. aureus ATCC 29213 [5] = assay: Broth microdilution MIC, ATCC QC organism (Example 12); format: cell-based, Staphylococcus aureus; details: S. aureus ATCC 29213, QC organism
Method: The in vitro activity of BisEDT and two additional bismuth-thiol investigational agents (MB-2B and MB-6) was determined for isolates of Escherichia coli, Klebsiella pneumoniae, Pseudomonas aeruginosa and Acinetobacter baumannii characterized for extended-spectrum β-lactamases (ESBL) and/or carbapenem resistance. In addition, vancomycin-intermediate Staphylococcus aureus (VISA) were evaluated. The majority of the isolates tested in the current study were multidrug-resistant (MDR) as defined by resistance to at least three different antibiotic classes. Susceptibility to the investigational compounds and relevant comparators was determined by broth microdilution conducted in accordance with guidelines from the Clinical and Laboratory Standards Institute (CLSI; 2,3).

S. aureus ATCC 29213 [6] = details: S. aureus ATCC 29213, QC organism; cited from earlier work
[7] = system: vancomycin-intermediate Staphylococcus aureus (VISA); assay: Broth microdilution MIC (Example 12)

MIC (Escherichia coli [3]; E. coli ATCC 25922, QC organism): 0.25 µg/mL (≈ 0.457 µM)
MIC (Escherichia coli [3]; E. coli ATCC 35218, QC organism): 0.12 µg/mL (≈ 0.22 µM)
MIC (Escherichia coli [3]; Escherichia coli ATCC 35218, ESBL): 0.12 µg/mL (≈ 0.22 µM)
MIC (Escherichia coli [3]; Escherichia coli ATCC BAA-2471, NDM): >64 µg/mL
MIC (Escherichia coli [3]; Escherichia coli CDC 114, ESBL/KPC): >64 µg/mL
MIC (Escherichia coli [3]; Escherichia coli CDC 118, ESBL/NDM): >64 µg/mL
MIC (Escherichia coli [3]; Escherichia coli CDC 435, NDM): >64 µg/mL
MIC (Escherichia coli [3]; Escherichia coli CDC 451, KPC): 64 µg/mL (≈ 117 µM)
MIC (Escherichia coli [3]; Escherichia coli CDC 503, ESBL/NDM): >64 µg/mL
MIC (Escherichia coli [3]; Escherichia coli MMX 5745, KPC): 32 µg/mL (≈ 58.5 µM)
MIC (Escherichia coli [3]; Escherichia coli MMX 5755, ESBL): >64 µg/mL
MIC (Escherichia coli [3]; Escherichia coli MMX 5756, ESBL): >64 µg/mL
MIC (Escherichia coli [3]; Escherichia coli MMX 5758, ESBL): 16 µg/mL (≈ 29.3 µM)
MIC (Klebsiella pneumoniae; K. pneumoniae ATCC BAA-1705, QC organism): >64 µg/mL
MIC (Klebsiella pneumoniae; Klebsiella pneumoniae ATCC BAA-1705, ESBL/KPC): >64 µg/mL
MIC (Klebsiella pneumoniae; Klebsiella pneumoniae CDC 112, KPC): >64 µg/mL
MIC (Klebsiella pneumoniae; Klebsiella pneumoniae CDC 113, ESBL/KPC): >64 µg/mL
MIC (Klebsiella pneumoniae; Klebsiella pneumoniae CDC 115, ESBL/KPC): >64 µg/mL
MIC (Klebsiella pneumoniae; Klebsiella pneumoniae CDC 120, ESBL/KPC): >64 µg/mL
MIC (Klebsiella pneumoniae; Klebsiella pneumoniae CDC 126, ESBL/KPC): 4 µg/mL (≈ 7.32 µM)
MIC (Klebsiella pneumoniae; Klebsiella pneumoniae CDC 129, ESBL/KPC): >64 µg/mL
MIC (Klebsiella pneumoniae; Klebsiella pneumoniae CDC 135, ESBL/VIM): >64 µg/mL
MIC (Klebsiella pneumoniae; Klebsiella pneumoniae CDC 138, ESBL/NDM): >64 µg/mL
MIC (Klebsiella pneumoniae; Klebsiella pneumoniae CDC 158, ESBL/NDM/OXA): >64 µg/mL
MIC (Klebsiella pneumoniae; Klebsiella pneumoniae MMX 9029, ESBL): 4 µg/mL (≈ 7.32 µM)
MIC (Pseudomonas aeruginosa [4]; P. aeruginosa ATCC 27853, QC organism): 2 µg/mL (≈ 3.66 µM)
MIC (Pseudomonas aeruginosa [4]; Pseudomonas aeruginosa CDC 230, VIM/OXA): 64 µg/mL (≈ 117 µM)
MIC (Pseudomonas aeruginosa [4]; Pseudomonas aeruginosa CDC 231, KPC/OXA): >64 µg/mL
MIC (Pseudomonas aeruginosa [4]; Pseudomonas aeruginosa CDC 241, IMP/OXA): >64 µg/mL
MIC (Pseudomonas aeruginosa [4]; Pseudomonas aeruginosa CDC 246, NDM/OXA): >64 µg/mL
MIC (Pseudomonas aeruginosa [4]; Pseudomonas aeruginosa CDC 250, NDM/OXA): >64 µg/mL
MIC (Pseudomonas aeruginosa [4]; Pseudomonas aeruginosa CDC 356, KPC): 64 µg/mL (≈ 117 µM)
MIC (Pseudomonas aeruginosa [4]; Pseudomonas aeruginosa CDC 439, IMP): >64 µg/mL
MIC (Pseudomonas aeruginosa [4]; Pseudomonas aeruginosa CDC 444, VIM): 32 µg/mL (≈ 58.5 µM)
MIC (Pseudomonas aeruginosa [4]; Pseudomonas aeruginosa CDC 457, VIM): >64 µg/mL
MIC (Pseudomonas aeruginosa [4]; Pseudomonas aeruginosa CDC 516, KPC/AmpC): 64 µg/mL (≈ 117 µM)
MIC (Pseudomonas aeruginosa [4]; Pseudomonas aeruginosa CDC 518, KPC/AmpC): 32 µg/mL (≈ 58.5 µM)
MIC (Acinetobacter baumannii; Acinetobacter baumannii CDC 273, ESBL/OXA): 64 µg/mL (≈ 117 µM)
MIC (Acinetobacter baumannii; Acinetobacter baumannii CDC 274, ESBL/OXA): >64 µg/mL
MIC (Acinetobacter baumannii; Acinetobacter baumannii CDC 275, ESBL/OXA): >64 µg/mL
MIC (Acinetobacter baumannii; Acinetobacter baumannii CDC 277, ESBL/OXA): >64 µg/mL
MIC (Acinetobacter baumannii; Acinetobacter baumannii CDC 284, ESBL/OXA): 64 µg/mL (≈ 117 µM)
MIC (Acinetobacter baumannii; Acinetobacter baumannii CDC 307, OXA): 64 µg/mL (≈ 117 µM)
MIC (Acinetobacter baumannii; Acinetobacter baumannii CDC 308, ESBL/OXA): 64 µg/mL (≈ 117 µM)
MIC (Acinetobacter baumannii; Acinetobacter baumannii CDC 311, OXA): >64 µg/mL
MIC (Acinetobacter baumannii; Acinetobacter baumannii CDC 312, OXA): >64 µg/mL
MIC (Acinetobacter baumannii; Acinetobacter baumannii CDC 313, ESBL/OXA): >64 µg/mL
MIC (Acinetobacter baumannii; Acinetobacter baumannii NCTC 13304, OXA): >64 µg/mL
SMILES: CC(C)(O/N=C(\C(=O)N[C@@H]1C(=O)N2C(C(=O)[O-])=C(C[n+]3ccccc3)CS[C@H]12)c1csc(N)n1)C(=O)O [CAZ]
MIC, QC range (Escherichia coli [1]): (0.06-0.5) μg/mL
MIC, QC range (Pseudomonas aeruginosa [2]): (1-4) μg/mL

SMILES: CCC[C@@H]1C[C@@H](C(=O)N[C@@H]([C@H]2O[C@H](SC)[C@H](O)[C@@H](O)[C@H]2O)[C@H](C)Cl)N(C)C1 [CLI]
MIC (S. aureus ATCC 29213 [5]): 0.25 µg/mL (≈ 0.588 µM)
MIC, QC range (S. aureus ATCC 29213 [6]): (0.06-0.25) μg/mL
MIC ([7]; Staphylococcus aureus NRS 1 (hVISA)): >8 µg/mL
MIC ([7]; Staphylococcus aureus NRS 2): >8 µg/mL
MIC ([7]; Staphylococcus aureus NRS 3): >8 µg/mL
MIC ([7]; Staphylococcus aureus NRS 4): >8 µg/mL
MIC ([7]; Staphylococcus aureus NRS 13): 0.06 µg/mL (≈ 0.141 µM)
MIC ([7]; Staphylococcus aureus NRS 18): >8 µg/mL
MIC ([7]; Staphylococcus aureus NRS 22): >8 µg/mL
MIC ([7]; Staphylococcus aureus NRS 24 (hVISA)): >8 µg/mL
MIC ([7]; Staphylococcus aureus NRS 27): >8 µg/mL
